In patent US10836706B2, “Bacterial efflux pump inhibitors” (RUTGERS, THE STATE UNIVERSITY OF NEW JERSEY, priority 2016, dated 2020):

Key:
[1] = system: Escherichia coli ATCC 25922; assay: Test A: MIC-based assay for potentiation of antibiotics that are known efflux pump substrates; format: cell-based; conditions: antibiotic MIC (e.g., clarithromycin and levofloxacin) in presence vs absence of the EPI compound; EPI at 1.6 to 12.5 μg/mL in CAMH broth, 24 hours at 37° C.
Description: (§1) The ability of a compound disclosed herein to inhibit a bacterial efflux pump can be determined using a method like Test A or Test B as described in Example 20 and as shown in Table 1. Test A. Minimum Inhibitory Concentration (MIC)-Based Assay for Potentiation of Antibiotics that are Known Efflux Pump Substrates: MIC-based assays were used to evaluate the impact of potential efflux pump inhibiting (EPI) compounds on the MICs of antibiotics (e.g., clarithromycin and levofloxacin) known to be substrates for Gram-negative bacterial efflux pumps. The assays were conducted in accordance with Clinical and Laboratory Standards Institute (CLSI) guidelines for broth microdilution, with the modification that assays were conducted in the presence and absence of the test EPI compounds. […] Log-phase Gram-negative bacteria were added to 96-well microtiter plates (at 5×10^5 colony forming units (CFU) per mL) containing two-fold serial dilutions of antibiotic in CAMH broth either in the absence or presence of the test EPI compounds. In all assays, each serial dilution of antibiotic was present in duplicate. The final volume in each well was 0.1 mL, and the microtiter plates were incubated aerobically for 24 hours at 37° C. […] The following Gram-negative bacterial strains were included in these assays: Escherichia coli ATCC 25922

[2] = system: Pseudomonas aeruginosa ATCC 27853; assay: as above; format: cell-based; conditions: antibiotic MIC (e.g., clarithromycin and levofloxacin) in presence vs absence of the EPI compound; EPI at 1.6 to 12.5 g/mL in CAMH broth, 24 hours at 37° C.
Description: as §1, with “Pseudomonas aeruginosa” for “Escherichia coli”, “27853.” for “25922”

SMILES	Enhanced Activity in E. coli [1] [x]	Enhanced Activity in P. aeruginosa [2] [x]
Cl.Cl.Cl.NCCC[C@H](N)CNCc1cc(C(F)(F)F)cc(C(F)(F)F)c1 [Example 1, (S)—N^1-(3,5-bis(trifluoromethyl)benzyl)pentane-1,2,5-triaminium Chloride]	≥2	<2
CC(C)(C)c1cc(CNC[C@@H](N)CCCN)cc(C(C)(C)C)c1.Cl.Cl.Cl [Example 2, (S)—N^1-(3,5-di-tert-butylbenzyl)pentane-1,2,5-triaminium Chloride]	≥8	<2
Cl.Cl.Cl.NCCC[C@H](N)CNCCc1cc(C(F)(F)F)cc(C(F)(F)F)c1 [Example 3, (S)—N^1-(3,5-bis(trifluoromethyl)phenethyl)pentane-1,2,5-triaminium chloride]	≥4	≥2
CC(N)CC[C@H](N)CNCc1cc(C(F)(F)F)cc(C(F)(F)F)c1.Cl.Cl.Cl (stereo partly drawn) [Example 4, (2S)—N^1-(3,5-bis(trifluoromethyl)benzyl)hexane-1,2,5-triaminium Chloride]	<2	<2
CC(C)C(N)CC[C@H](N)CNCc1cc(-c2ccc(F)cc2)cc(-c2ccc(F)cc2)c1.Cl.Cl.Cl (stereo partly drawn) [Example 5, (2S)—N^1-((4,4″-difluoro-[1,1′:3′,1″-terphenyl]-5′-yl)methyl)-6-methylheptane-1,2,5-triaminium chloride]	32	≥2
Cl.Cl.Cl.NCCC[C@H](N)CNCc1cc(-c2ccc(F)cc2)cc(-c2ccc(F)cc2)c1 [Example 6, (S)—N1-((4,4″-difluoro-[1,1′:3′,1″-terphenyl]-5′-yl)methyl)pentane-1,2,5-triaminium chloride]	≥512	≥16
Cl.Cl.Cl.NCCN(CCN)Cc1cc(-c2ccc(F)cc2)cc(-c2ccc(F)cc2)c1 [Example 7, N1-(2-ammonioethyl)-N1-((4,4″-difluoro-[1,1′:3′,1″-terphenyl]-5′-yl)methyl)ethane-1,2-diaminium chloride]	≥512	≥16
Cl.Cl.Cl.NCCN(CCN)Cc1cc(C(F)(F)F)cc(C(F)(F)F)c1 [Example 8, 2-ammonio-1-((2-ammonioethyl)(3,5-bis(trifluoromethyl)benzyl)-14-azanyl)ethan-1-ylium chloride]	<2	<2
CC(C)(CNC[C@@H](N)CCCN)c1cc(-c2ccc(F)cc2)cc(-c2ccc(F)cc2)c1.Cl.Cl.Cl [Example 9, (S)—N^1-(2-(4,4″-difluoro-[1,1′:3′,1″-terphenyl]-5′-yl)-2-methylpropyl)pentane-1,2,5-triaminium chloride]	≥128	≥2
Cl.Cl.Cl.NCCC[C@H](N)CNCCc1cc(-c2ccc(F)cc2)cc(-c2ccc(F)cc2)c1 [Example 10, (S)—N1-(2-(4,4″-difluoro-[1,1′:3′,1″-terphenyl]-5′-yl)ethyl)pentane-1,2,5-triaminium chloride]	≥1024	≥64
Cl.Cl.NCCC[C@@H](N)COc1cc(-c2ccc(F)cc2)cc(-c2ccc(F)cc2)c1 [Example 11, (R)-5-((4,4″-difluoro-[1,1′:3′,1″-terphenyl]-5′-yl)oxy)pentane-1,4-diaminium chloride]	≥1024	≥16
Cl.Cl.NC[C@H](N)CCc1cc(-c2ccc(F)cc2)cc(-c2ccc(F)cc2)c1 [Example 12, (R)-4-(4,4″-difluoro-[1,1′:3′,1″-terphenyl]-5′-yl)butane-1,2-diaminium chloride]	≥32	<2
Cl.Cl.NCCC[C@H](N)COc1cc(-c2ccc(F)cc2)cc(-c2ccc(F)cc2)c1 [Example 13, (S)-5-((4,4″-difluoro-[1,1′:3′,1″-terphenyl]-5′-yl)oxy)pentane-1,4-diaminium chloride]	256	<2
CC(C)C(N)CC[C@H](N)COc1cc(-c2ccc(F)cc2)cc(-c2ccc(F)cc2)c1.Cl.Cl (stereo partly drawn) [Example 14, (2S)-1-((4,4″-difluoro-[1,1′:3′,1″-terphenyl]-5′-yl)oxy)-6-methylheptane-2,5-diaminium]	<2	<2
NCCC[C@H](N)CNCc1cc(-c2ccccc2)cc(-c2ccccc2)c1 [Example 15, (S)—N1-([1,1′:3′,1″-terphenyl]-5′-ylmethyl)pentane-1,2,5-triaminium Chloride]	≥128	≥16
Cl.Cl.NCCC[C@H](N)COc1cc(-c2ccc(C(F)(F)F)cc2)cc(-c2ccc(C(F)(F)F)cc2)c1 [Example 16, (S)-5-((4,4″-bis(trifluoromethyl)-[1,1′:3′,1″-terphenyl]-5′-yl)oxy)pentane-1,4-diaminium chloride]	<2	≥2
COc1ccc(-c2cc(OC[C@@H](N)CCCN)cc(-c3ccc(OC)cc3)c2)cc1.Cl.Cl [Example 17, (S)-5-((4,4″-dimethoxy-[1,1′:3′,1″-terphenyl]-5′-yl)oxy)pentane-1,4-diaminium chloride]	≥1024	≥2
Cl.Cl.NCCC[C@@H](N)COc1cc(-c2cccc(F)c2)cc(-c2cccc(F)c2)c1 [Example 18, (R)-5-((3,3″-difluoro-[1,1′:3′,1″-terphenyl]-5′-yl)oxy)pentane-1,4-diaminium chloride]	≥512	≥1
Cl.Cl.NCCC[C@@H](N)COc1cc(-c2ccc(F)c(F)c2)cc(-c2ccc(F)c(F)c2)c1 [Example 19, (R)-5-((3,3″,4,4″-tetrafluoro-[1,1′:3′,1″-terphenyl]-5′-yl)oxy)pentane-1,4-diaminium chloride]	≥2	≥1
